This note sets out measurements from PubChem BioAssay (NCI).

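Exposure lasted 48 hours, with cells grown in 96-well plates and compounds tested at five concentrations. TGI denotes the concentration required for complete inhibition of growth.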

Among the test systems are HOP-92 NSCLC; RXF 393 renal; SK-MEL-5 melanoma; SK-MEL-2 melanoma; CAKI-1 renal; SF-268 CNS; EKVX NSCLC; DU-145 prostate; MCF7 breast; MDA-MB-231 breast.
What all share (assay): NCI-60 cell line screen, 48 h

On to `Cc1cc(C)nc(NS(=O)(=O)c2ccc(Nc3c4ccccc4nc4c(C(=O)N5CCN(CCOS(C)(=O)=O)CC5)ccc(Cl)c34)cc2)n1`, for which the TGI in the test with HOP-92 NSCLC, with RXF 393 renal, in the test with SK-MEL-5 melanoma, in the test on SK-MEL-2 melanoma, in the test with CAKI-1 renal and in the test with SF-268 CNS was more than 100 µM throughout.

With `O=C(c1ccccc1)[C@H]1Nc2cnccc2C2c3ccccc3CC21` (stereo partly specified), the TGI in the test on HOP-92 NSCLC is 37.4 µM; in the test with RXF 393 renal, 50.4 µM; in the test with SK-MEL-5 melanoma, 10.1 µM; in the test on EKVX NSCLC, 71 µM; with SK-MEL-2 melanoma it was 29.9 µM; in the test with CAKI-1 renal, more than 73.6 µM. The TGI in the test with SF-268 CNS came out at 59.9 µM.

`COC(=O)/C(=N\NC(=S)NN)C(C(=O)C(=O)Nc1ccccc1C(N)=O)c1nc2ccccc2[nH]c1=O` (stereo unspecified): the TGI in the test with HOP-92 NSCLC, with RXF 393 renal, in the test with SK-MEL-5 melanoma, in the test on EKVX NSCLC, in the test on SK-MEL-2 melanoma and in the test on CAKI-1 renal was more than 100 µM in each case. The same molecule yielded a TGI in the test with SF-268 CNS of more than 100 µM.

For the molecule `O=c1c2cc3c(=O)n(CCc4ccccc4CO)c(=O)c3cc2c(=O)n1CCc1ccccc1CO`, the TGI with RXF 393 renal, in the test with SK-MEL-5 melanoma, in the test with SK-MEL-2 melanoma and in the test on SF-268 CNS was more than 100 µM in each case.

As for `COC(=O)C1=C(C(=O)OC)C2(C)CCC(=O)C1O2` (stereo unspecified), the TGI in the test on DU-145 prostate, with MCF7 breast, with RXF 393 renal, in the test with SK-MEL-5 melanoma, in the test on MDA-MB-231 breast and with EKVX NSCLC was more than 10 µM throughout. In addition, the TGI in the test on SK-MEL-2 melanoma, in the test with CAKI-1 renal and in the test on SF-268 CNS was more than 10 µM each time.

Consider `CCCC[C@@H]1CCN2C[C@@H](O)[C@@H](O)[C@H]2[C@@H]1O`, for which the TGI in the test with MCF7 breast, in the test on HOP-92 NSCLC, in the test on SK-MEL-5 melanoma, with MDA-MB-231 breast, with EKVX NSCLC and in the test with SK-MEL-2 melanoma was more than 100 µM each time. Further, the TGI in the test with CAKI-1 renal and in the test on SF-268 CNS was more than 100 µM throughout.

For the molecule `NC(CCSCC(F)F)C(=O)O` (stereo unspecified), the TGI with HOP-92 NSCLC, with RXF 393 renal, in the test with SK-MEL-5 melanoma, in the test on EKVX NSCLC, in the test on CAKI-1 renal and in the test with SF-268 CNS was more than 100 µM each time.

With `Cc1ccsc1C(=S)Nc1ccc(Cl)c(C(=O)OC(C(C)C)C(C)C)c1`, the TGI is more than 100 µM in the test with DU-145 prostate; more than 100 µM with MCF7 breast; 61.3 µM in the test with HOP-92 NSCLC; 33 µM in the test on SK-MEL-5 melanoma; 71.3 µM with MDA-MB-231 breast; more than 100 µM in the test on EKVX NSCLC. The TGI is 25.8 µM with SK-MEL-2 melanoma, 59.8 µM in the test with CAKI-1 renal and more than 100 µM with SF-268 CNS.

On to `COc1cc(-c2c3c(cc4c2OCO4)[C@@H](Nc2ccc4c(c2)Cc2cc(N[C@@H]5c6cc7c(cc6C(c6cc(OC)c(O)c(OC)c6)[C@H]6C(=O)OC[C@H]56)OCO7)ccc2-4)[C@H]2COC(=O)[C@@H]2C3)cc(OC)c1O` (stereo partly specified), for which the TGI is more than 100 µM in the test on DU-145 prostate; more than 100 µM in the test with MCF7 breast; 97.3 µM with HOP-92 NSCLC; 46.2 µM in the test with SK-MEL-5 melanoma; more than 100 µM in the test with MDA-MB-231 breast; more than 100 µM in the test with EKVX NSCLC. Also, the figures for the TGI in the test with CAKI-1 renal and in the test with SF-268 CNS were 88.9 µM and more than 100 µM, respectively.

`N#CC(C#N)=Cc1cccc(Oc2ccccc2)c1`: the TGI with RXF 393 renal is 33.4 µM; with SK-MEL-5 melanoma, 36.6 µM; with EKVX NSCLC, more than 100 µM; in the test on SK-MEL-2 melanoma, 49 µM; with CAKI-1 renal, 50.4 µM; with SF-268 CNS, 40.6 µM.

For `CC12CCC(C/C1=N\NC(N)=O)C2(C)C` (stereo unspecified), the TGI with DU-145 prostate, in the test with MCF7 breast, with HOP-92 NSCLC, in the test on SK-MEL-5 melanoma, in the test on EKVX NSCLC and in the test on SK-MEL-2 melanoma was more than 100 µM in each case. The TGI in the test with CAKI-1 renal and in the test on SF-268 CNS was more than 100 µM each time.

In the case of `CCOC(=O)c1c(NC(=S)Nc2ccc(C)cc2)sc2c1CCN(C)C2`, the TGI in the test on DU-145 prostate, in the test on MCF7 breast, in the test with RXF 393 renal, in the test on SK-MEL-5 melanoma, in the test on MDA-MB-231 breast and in the test with EKVX NSCLC was more than 100 µM throughout. For the same molecule, the TGI in the test with SK-MEL-2 melanoma, in the test on CAKI-1 renal and in the test with SF-268 CNS was more than 100 µM in each case.

`CCOC(=O)C(NC(=O)c1ccc(N=NN(C)C)cc1)C(C)C` (stereo unspecified): the TGI in the test with SK-MEL-5 melanoma, with EKVX NSCLC, with SK-MEL-2 melanoma, in the test on CAKI-1 renal and in the test with SF-268 CNS was more than 100 µM in each case.

For `FC(F)=C(c1ccc(-c2ccc(Cl)cc2)cc1)C(F)(F)F`, the TGI amounted to 34.6 µM in the test on DU-145 prostate; 33.4 µM in the test with HOP-92 NSCLC; 40.9 µM in the test on RXF 393 renal; 32.9 µM in the test on SK-MEL-5 melanoma; 46.3 µM in the test with MDA-MB-231 breast; 41.5 µM in the test on EKVX NSCLC. Besides, the TGI was found to be 42.5 µM in the test with SK-MEL-2 melanoma, 46.3 µM with CAKI-1 renal and 56.3 µM with SF-268 CNS.

`O=c1oc2ccccc2c2nc3ccccc3cc12`: the TGI in the test with DU-145 prostate was more than 100 µM; with HOP-92 NSCLC it was 90.1 µM; with RXF 393 renal it was 91.3 µM; in the test on SK-MEL-5 melanoma, more than 100 µM; with MDA-MB-231 breast it was more than 100 µM; in the test with EKVX NSCLC it was more than 100 µM. In addition, the TGI with SK-MEL-2 melanoma and in the test on CAKI-1 renal was more than 100 µM each time.

On to `C[C@@H]1C(=O)CC2(O)[C@@]13C[C@@H](OC(=O)[C@@H]3O)[C@@H](C)[C@@]21COC1=O` (stereo partly specified), for which the TGI in the test on DU-145 prostate, in the test on MCF7 breast, in the test on RXF 393 renal, in the test on SK-MEL-5 melanoma, in the test on MDA-MB-231 breast and in the test on EKVX NSCLC was more than 100 µM each time. Also, the TGI in the test with SK-MEL-2 melanoma and in the test with SF-268 CNS was more than 100 µM throughout.

Take `Brc1ccc2c(c1)-c1nc3c(cc1CC2)CCc1ccc(Br)cc1-3`: the TGI in the test with MCF7 breast, with HOP-92 NSCLC, in the test on RXF 393 renal, in the test on SK-MEL-5 melanoma, with MDA-MB-231 breast and with EKVX NSCLC was more than 100 µM each time. For the same molecule, the TGI with SK-MEL-2 melanoma, in the test on CAKI-1 renal and in the test on SF-268 CNS was more than 100 µM in each case.
